Assay results published in patent publication US20110136728A1, “METHODS OF INCREASING BONE FORMATION USING LEPTIN-RELATED PEPTIDES” (priority 2009, published 2011).
No end group written: not given here.

System: ob/ob mouse model
Experiment: Earlier study of OB3 and D-amino acid-substituted OB3 analogs: body weight gain, food and water intake, blood glucose
Type: in vivo
Settings: mouse, in vivo
Excerpt: Single-point D-amino acid substitution was used to study the structure-function relationships of each amino acid residue in OB3, and to increase its efficacy. The restricted domain represented by OB3 contains a functional epitope, which has the ability to mimic at least some of the effects of leptin on energy balance and glucose homeostasis.
The design of peptide ligands involved the introduction of conformational constraints into native sequences by techniques that include, but are not limited to, D-amino acid substitution or cyclization. (Hruby and Bonner, Methods Mol Biol. 35:201-40 (1994)). Systematic replacement of L-amino acids by their D-amino acid isoforms was used to determine the stereostructural requirements of specific residues in a peptide for peptide-receptor interaction, and to assess the contribution of certain secondary structural motifs, e.g., α-helix or β-turn, to the bioactivity of the peptide. (Hruby, Biopolymers 33(7):1073-82 (1993) and Hruby, Life Sci. 52(10):845-55 (1993)). This approach increased peptide resistance to enzymatic hydrolysis, and to enhance the properties of biologically active peptides, including receptor binding, functional potency, and duration of action. (See Fauchere et al., Adv. Drug Res., 23:127-139 (1992); Doherty et al., J. Med. Chem., 36:2585-2594 (1993); Kirby et al., J. Med. Chem., 36:3802-3808 (1993); Morita et al., FEBS Lett., 353:84-88 (1994)).
(See Rozhayskaya-Arena M, et al., Endocrinology 141:2501-2517 (2000); Grasso P et al., Regulatory Pep. 101:123-129 (2001)).

Substance: SCSLPQT [OB3, amino acid residues 116-122 of mouse leptin]
- maximal reduction of blood glucose levels: approximately 100 mg/dl
